#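 Assay format: 96-well plates, 48-hour exposure. Abbreviation: GI50, concentration required for 50% inhibition of growth. At the TGI there is no net growth.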
# What was measured:
# Experiment in all cases: growth of human tumour cells (NCI), 48 h
# MOLT-4 leukemia = test system: MOLT-4 leukemia
# DU-145 prostate = test system: DU-145 prostate
# LOX IMVI melanoma = test system: LOX IMVI melanoma
# SNB-75 CNS = test system: SNB-75 CNS
# HCT-15 colon = test system: HCT-15 colon
# NCI-H23 lung = test system: NCI-H23 lung
# SK-MEL-28 melanoma = test system: SK-MEL-28 melanoma
# CCRF-CEM leukemia = test system: CCRF-CEM leukemia
# T-47D breast = test system: T-47D breast
# OVCAR-4 ovarian = test system: OVCAR-4 ovarian
# SR leukemia = test system: SR leukemia
# UACC-257 melanoma = test system: UACC-257 melanoma
# EKVX NSCLC = test system: EKVX NSCLC
# SN12C renal = test system: SN12C renal
# KM12 colon = test system: KM12 colon
# OVCAR-3 ovarian = test system: OVCAR-3 ovarian
# NCI-H226 lung = test system: NCI-H226 lung
# SK-MEL-2 melanoma = test system: SK-MEL-2 melanoma
# CAKI-1 renal = test system: CAKI-1 renal
# SK-MEL-5 melanoma = test system: SK-MEL-5 melanoma
# NCI-H460 lung = test system: NCI-H460 lung
# SNB-19 CNS = test system: SNB-19 CNS
# HOP-62 NSCLC = test system: HOP-62 NSCLC
# HCT-116 colon = test system: HCT-116 colon
# SW-620 colon = test system: SW-620 colon
# MCF7 breast = test system: MCF7 breast
# HL-60(TB) leukemia = test system: HL-60(TB) leukemia
# HOP-92 NSCLC = test system: HOP-92 NSCLC
# MDA-MB-435 = test system: MDA-MB-435
# SF-295 CNS = test system: SF-295 CNS
# UO-31 renal = test system: UO-31 renal
# U251 CNS = test system: U251 CNS
# A498 renal = test system: A498 renal
# MALME-3M melanoma = test system: MALME-3M melanoma
# OVCAR-5 ovarian = test system: OVCAR-5 ovarian
# A549 NSCLC = test system: A549 NSCLC
# NCI-H522 lung = test system: NCI-H522 lung
# SK-OV-3 ovarian = test system: SK-OV-3 ovarian
# UACC-62 melanoma = test system: UACC-62 melanoma
# OVCAR-8 ovarian = test system: OVCAR-8 ovarian
# HT29 colon = test system: HT29 colon
# K-562 leukemia = test system: K-562 leukemia
# BT-549 breast = test system: BT-549 breast
# SF-268 CNS = test system: SF-268 CNS
# COLO 205 colon = test system: COLO 205 colon
# SF-539 CNS = test system: SF-539 CNS
# IGROV1 ovarian = test system: IGROV1 ovarian
# HCC-2998 colon = test system: HCC-2998 colon
# TK-10 renal = test system: TK-10 renal
# PC-3 prostate = test system: PC-3 prostate
# M14 melanoma = test system: M14 melanoma
# HS 578T breast = test system: HS 578T breast
# ACHN renal = test system: ACHN renal
# 786-0 renal = test system: 786-0 renal
# MDA-MB-231 breast = test system: MDA-MB-231 breast
# NCI/ADR-RES ovarian = test system: NCI/ADR-RES ovarian
structure (smiles),measurement,setting,value
C#C[C@]1(O)CC[C@H]2[C@@H]3CC=C4c5sc(-c6ccc7c(c6)OCO7)nc5CC[C@]4(C)[C@H]3CC[C@@]21C,GI50,MOLT-4 leukemia,2.8 µM
same,TGI,MOLT-4 leukemia,> 100 µM
same,GI50,DU-145 prostate,3.45 µM
same,TGI,DU-145 prostate,70.5 µM
same,GI50,LOX IMVI melanoma,1.73 µM
same,TGI,LOX IMVI melanoma,4.3 µM
same,GI50,SNB-75 CNS,1.73 µM
same,TGI,SNB-75 CNS,8.25 µM
same,GI50,HCT-15 colon,1.93 µM
same,TGI,HCT-15 colon,6.28 µM
same,GI50,NCI-H23 lung,2.13 µM
same,TGI,NCI-H23 lung,5.29 µM
same,GI50,SK-MEL-28 melanoma,1.29 µM
same,TGI,SK-MEL-28 melanoma,2.85 µM
same,GI50,CCRF-CEM leukemia,2.8 µM
same,TGI,CCRF-CEM leukemia,> 100 µM
same,GI50,T-47D breast,3.62 µM
same,TGI,T-47D breast,27.6 µM
same,GI50,OVCAR-4 ovarian,3.33 µM
same,TGI,OVCAR-4 ovarian,9.95 µM
same,GI50,SR leukemia,2.64 µM
same,TGI,SR leukemia,> 100 µM
same,GI50,UACC-257 melanoma,2.43 µM
same,TGI,UACC-257 melanoma,6.7 µM
same,GI50,EKVX NSCLC,3.55 µM
same,TGI,EKVX NSCLC,73.5 µM
same,GI50,SN12C renal,2.88 µM
same,TGI,SN12C renal,9.83 µM
same,GI50,KM12 colon,3.46 µM
same,TGI,KM12 colon,31.1 µM
same,GI50,OVCAR-3 ovarian,3 µM
same,TGI,OVCAR-3 ovarian,11.9 µM
same,GI50,NCI-H226 lung,3.31 µM
same,TGI,NCI-H226 lung,12.6 µM
same,GI50,SK-MEL-2 melanoma,2.14 µM
same,TGI,SK-MEL-2 melanoma,6.37 µM
same,GI50,CAKI-1 renal,2.63 µM
same,TGI,CAKI-1 renal,8.37 µM
same,GI50,SK-MEL-5 melanoma,2.64 µM
same,TGI,SK-MEL-5 melanoma,6.99 µM
same,GI50,NCI-H460 lung,2.38 µM
same,TGI,NCI-H460 lung,5.64 µM
same,GI50,SNB-19 CNS,2.59 µM
same,TGI,SNB-19 CNS,13.8 µM
same,GI50,HOP-62 NSCLC,2.53 µM
same,TGI,HOP-62 NSCLC,7.94 µM
same,GI50,HCT-116 colon,1.84 µM
same,TGI,HCT-116 colon,5.3 µM
same,GI50,SW-620 colon,2.07 µM
same,TGI,SW-620 colon,5.28 µM
same,GI50,MCF7 breast,1.87 µM
same,TGI,MCF7 breast,4.95 µM
same,GI50,HL-60(TB) leukemia,3.8 µM
same,TGI,HL-60(TB) leukemia,> 100 µM
same,GI50,HOP-92 NSCLC,8.39 µM
same,TGI,HOP-92 NSCLC,29.8 µM
same,GI50,MDA-MB-435,1.97 µM
same,TGI,MDA-MB-435,4.17 µM
same,GI50,SF-295 CNS,0.52 µM
same,TGI,SF-295 CNS,2.56 µM
same,GI50,UO-31 renal,2.03 µM
same,TGI,UO-31 renal,5.47 µM
same,GI50,U251 CNS,1.41 µM
same,TGI,U251 CNS,4.53 µM
same,GI50,A498 renal,1.63 µM
same,TGI,A498 renal,7.49 µM
same,GI50,MALME-3M melanoma,2.69 µM
same,TGI,MALME-3M melanoma,8.62 µM
same,GI50,OVCAR-5 ovarian,2.08 µM
same,TGI,OVCAR-5 ovarian,5.29 µM
same,GI50,A549 NSCLC,2.76 µM
same,TGI,A549 NSCLC,8.48 µM
same,GI50,NCI-H522 lung,2.38 µM
same,TGI,NCI-H522 lung,6.17 µM
same,GI50,SK-OV-3 ovarian,4.83 µM
same,TGI,SK-OV-3 ovarian,26.6 µM
same,GI50,UACC-62 melanoma,2.24 µM
same,TGI,UACC-62 melanoma,5.19 µM
same,GI50,OVCAR-8 ovarian,3.43 µM
same,TGI,OVCAR-8 ovarian,86.3 µM
same,GI50,HT29 colon,2.32 µM
same,TGI,HT29 colon,7.65 µM
same,GI50,K-562 leukemia,3.53 µM
same,TGI,K-562 leukemia,> 100 µM
same,GI50,BT-549 breast,1.99 µM
same,TGI,BT-549 breast,5.67 µM
same,GI50,SF-268 CNS,4.97 µM
same,TGI,SF-268 CNS,27.7 µM
same,GI50,COLO 205 colon,3.87 µM
same,TGI,COLO 205 colon,27.8 µM
same,GI50,SF-539 CNS,0.428 µM
same,TGI,SF-539 CNS,1.96 µM
same,GI50,IGROV1 ovarian,2.98 µM
same,TGI,IGROV1 ovarian,8.3 µM
same,GI50,HCC-2998 colon,5.56 µM
same,TGI,HCC-2998 colon,> 100 µM
same,GI50,TK-10 renal,3.39 µM
same,TGI,TK-10 renal,10.1 µM
same,GI50,PC-3 prostate,1.68 µM
same,TGI,PC-3 prostate,4.46 µM
same,GI50,M14 melanoma,1.73 µM
same,TGI,M14 melanoma,5.34 µM
same,GI50,HS 578T breast,0.501 µM
same,TGI,HS 578T breast,3.98 µM
same,GI50,ACHN renal,2.11 µM
same,TGI,ACHN renal,5.57 µM
same,GI50,786-0 renal,0.841 µM
same,TGI,786-0 renal,3.78 µM
same,GI50,MDA-MB-231 breast,3.45 µM
same,TGI,MDA-MB-231 breast,40.8 µM
same,GI50,NCI/ADR-RES ovarian,3.34 µM
same,TGI,NCI/ADR-RES ovarian,17 µM

# From PubChem BioAssay (NCI)
